Values of other authors as cited in patent US20240082217A1, “PROCESS FOR OBTAINING A PURIFIED PS[…] SOLUTION” (PSILO SCIENTIFIC LTD, priority 2020, published 2024).

Conditions: stated as a property of the alkaloid, freebase form; no measurement described

SMILES: CN(C)CCc1c[nH]c2cccc(O)c12 [psilocin]
- isoelectric point (pH): 8.47±0.25 pH
